Data as given in patent publication US20230381205A1, “COMPOSITIONS AND METHODS FOR TREATING NEURONAL DISORDERS WITH CANNABINOIDS” (INMED PHARMACEUTICALS INC., priority 2020, published 2023).

Tests used:
[1] = tested on: differentiated SH-SY5Y human neuronal cells; test: MTT assay: cytotoxicity of the substance alone (primary screen, no added insult); assay type: cell-based; details: for toxicity in primary screen / Cell Death (%) vs Vehicle Control: FIG. 1; for Cell Death (%) vs Vehicle Control: 15 μM, pre-screen
Procedure: (§1) Cell Culture and Differentiation: The SH-SY5Y human neuronal cell line was derived from neuroblastoma established from a metastatic bone tumor (patient with neuroblastoma). The cells were maintained in DMEM:F12 culture medium supplemented with 10% FBS and 1% Antibiotic-Antimycotic penicillin/streptomycin (growth medium) at 37° C. in a humidified atmosphere of 5% CO2. To induce neuronal differentiation of SH-SY5Y cells, culture media was replaced by a growth medium containing Retinoic Acid (RA) for 4-5 days at 37° C. in a humidified atmosphere of 5% CO2.
(§2) Compounds and Dosing Formulations: Selected cannabinoids: CBD, CBDA, CBC, CBG, CBGA, CBN, CBND and Δ^9-THC were procured from Cayman Chemicals and TRC. Ethanol (100%) was used as the solvent to prepare 1 and 10 mM stock solutions. Treatment concentrations for CBGA were prepared at 0.5 μM, 1.5 μM, 5 μM, 10 μM, 15 μM, 20 μM. Treatment concentrations for CBD, CBDA, CBC, CBN, CBND and Δ^9-THC were prepared at 0.5, 1.5, 5 and for CBG at 0.5 μM, 1.5 μM, 5 μM, 10 μM, 15 μM. Treatments were prepared directly in the control medium (DMEM:F12+5% FBS+1% Antibiotic-Antimycotic) by using appropriate stock solutions.
(§3) Evaluation of Cytotoxicity and Neuroprotection: Evaluation of cannabinoids neuroprotection and cytotoxicity on differentiated SH-SY5Y human neuronal cells was carried out by MTT (3-(4,5-dimethylthiazol-2-yl)-2,5-diphenyltetrazolium bromide) assay. Initially, cannabinoid cytotoxicity and neuroprotection were evaluated in a primary screen assay without the presence of cytotoxicity inducing insult agents. […] The Retinoic Acid (RA) differentiated SH-SY5Y neuronal cells were seeded onto 96-well plates (10,000 cells/well) in DMEM:F12 complete medium. Cells were differentiated for 4-5 days in the presence of RA.
(§4) MTT Assay: For the MTT assay, differentiated SH-SY5Y neuronal cells were treated with cannabinoids at various concentrations for 72 hrs in the presence of STSR at 75 nM, 100 nM, 150 nM and 200 nM or for 24 hrs in the presence of […] at 5 μM, respectively and processed to determine cytotoxicity. Briefly, 5 mg/mL of methylthiazolyldiphenyl-tetrazolium bromide (Sigma-Aldrich) stock solution was prepared in PBS. Following treatment of SH-SY5Y neuronal cells with cannabinoids for 72 hrs, the cells were incubated with 20 μL of MTT stock solution in 200 μL DMEM for 2 hrs at 37° C. Following subsequent washes with PBS, 200 μL of isopropanol was added to each well. The resulting change in color from dissolving formazan salt was immediately quantified using a spectrophotometer (BMG Labtech) at a wavelength of 570 nm. […] The results are illustrated in FIGS. 1-7.

[2] = tested on: differentiated SH-SY5Y human neuronal cells; test: MTT assay: neuroprotection from Staurosporin (STSR) induced cytotoxicity; assay type: cell-based; details: for neuroprotection against STSR-induced cytotoxicity: 0.5 μM, 1.5 μM and 5 μM with STSR 75 nM, 72 hrs; for neuroprotection against STSR-induced cytotoxicity / Cell Death (%) vs STSR at 75 nM, significance: FIG. 3; for Cell Death (%) vs STSR at 75 nM, significance: 5 μM with STSR 75 nM, compared to STSR-alone, One-Way ANOVA
Procedure: as §1, §2, §3, §4

CB1R = test: Changes in CB1 receptor expression and translocation; assay type: cell-based; details: CBGA 5 μM, 10 μM, dose-dependent; FIG. 11
Source text: FIG. 11 Changes in receptor expression.

[3] = tested on: differentiated SH-SY5Y cells; test: Neurite length / neuritogenesis in differentiated SH-SY5Y cells; assay type: cell-based, human; details: 24 hours post treatment, FIG. 14 (B)
Procedure: FIG. 12 provides representative photomicrographs illustrating CBGA mediated changes in neurite elongation and branching in differentiated SH-SY5Y cells in a dose dependent manner. […] FIG. 12 also provides a histogram showing gradual changes in neurite length following treatment with CBGA.
(§5) FIG. 14 Morphological characterization of CBGA, THC and CBN mediated changes in differentiated SH-SY5Y cells. SH-SY5Y cells were differentiated with RA (10 μM) for 5 days as indicated. (A) Representative confocal photomicrographs showing changes in the cellular distribution of Tuj1 in RA induced differentiated SH-SY5Y cells following treatment with CBGA, THC and CBN. (B) Histogram showing the effect of CBGA, CBN, THC on neurite length.

[4] = tested on: differentiated SH-SY5Y cells; test: Immunocytochemistry of TuJ1 and neuronal morphology; assay type: cell-based, human; details: 5 μM, FIG. 14
Procedure: as §5

BAX = test: Western blot of BAX (pro-apoptotic marker); assay type: cell-based, human; details: Aβ1-42 (5 μM) alone, FIG. 9
Procedure: (§6) For Western blot analysis, control and the treated cells were harvested and lysed in cold lysis buffer (150 mM NaCl, 50 mM Tris-HCl, 1% Triton X-100, 0.1% SDS, 0.5% Sodium deoxycholate, and 1% protease-phosphatase inhibitor mixture). The supernatants were collected and protein concentrations were determined using Bio-Rad protein assay (Bio-Rad Laboratories). Whole cell lysates (10 μg) were subjected to 10% SDS-polyacrylamide electrophoresis and transferred to nitrocellulose membrane. The membranes were blocked with 5% skim milk in TBS-T (Tris-buffered saline with 0.05% Tween-20) for 1 h at RT and blotted overnight in the presence of monoclonal anti-mouse MAP2 (1:1000, Sigma, cat. no. M1406), Tau (1:1000, Invitrogen, cat. no. AHB0042), TUJI (1:5000, BioLegend, cat. no. MMS-435P), BAX (1:1000, Cell signaling, cat. no. 2772) and rabbit polyclonal total and phosphorylated BCL (1:1000, Cell signaling, antibodies #2827 and 2870). The membranes were washed and incubated for 1 h in RT with either horseradish peroxidase (HRP)-conjugated goat anti-mouse (1:2000) or goat anti-rabbit antibodies (1:2000) (Jackson Lab). The membranes were washed and developed using chemiluminescence detection kit (Millipore, Billerica, MA, USA) on Alpha Innotech FluorChem 8800. β-Actin or Vinculin was used as a loading control. […]

BCL2 = test: Western blot of phosphorylated BCL2 (anti-apoptotic marker); assay type: cell-based, human; details: Aβ1-42 insult alone, FIG. 10
Procedure: as §6

[5] = tested on: differentiated SH-SY5Y cells; test: Confocal immunofluorescence of MAP2 and neurite morphology; assay type: cell-based, human; details: Aβ1-42 at 5 μM alone, FIG. 16
Procedure: SH-SY5Y cells were differentiated with RA (10 μM) for 5 days as indicated.
Accordingly, the effect of CBGA on the expression of MAP-2 was tested.

[6] = tested on: differentiated SH-SY5Y human neuronal cells; test: MTT assay: neuroprotection from Aβ1-42 induced cytotoxicity; assay type: cell-based
Procedure: as §1, §2, §3, §4

[7] = tested on: differentiated SH SY5Y cells treated with Aβ1-42; test: Receptor antagonist study: reversal of CBGA mediated protection from Aβ toxicity; assay type: cell-based, human; details: CB2 antagonist at 1.5 μM (lowest concentration tested), with CBGA + Aβ1-42, FIG. 8
Procedure: FIG. 8 illustrates the effect of a CB2 antagonist has on the reversal of CBGA mediated protection of Aβ toxicity. The CB2 antagonist […] has a more prominent effect on the reversal of CBGA mediated protection. […] CB2 antagonist has significant effect on the reversal of CBGA mediated protection at lower concentration. p<0.0001 for Aβ compared to vehicle control. p<0.0001 for all groups compared to CBGA ([…])+Aβ.

| Compound | toxicity in primary screen ([1]; 5 μM to 15 μM) | Cell Death (%) vs Vehicle Control [1] | toxicity in primary screen ([1]; about 0.5 μM to 1.5 μM) | neuroprotection against STSR-induced cytotoxicity [2] | Cell Death (%) vs STSR at 75 nM, significance [2] | also measured |
| --- | --- | --- | --- | --- | --- | --- |
| C=C(C)[C@@H]1CCC(C)=C[C@H]1c1c(O)cc(CCCCC)c(C(=O)O)c1O [CBDA, cannabidiolic acid] | high levels of toxicity | promote cell death | high levels of toxicity | – | – | – |
| CCCCCc1cc(O)c2c(c1)OC(C)(C)c1ccc(C)cc1-2 [CBN, cannabinol] | high levels of toxicity | promote cell death | – | did not protect | statistically significant cytotoxicity | CB1R expression and translocation (CB1R): did not alter the expression of CB1R; neurite length [3]: significantly decreased the neurite length; neuronal morphology and neurite outgrowth, TuJ1 staining [4]: loss of neurite outgrowth and elongation |
| CCCCCc1cc(O)c2c(c1)OC(C)(C)[C@@H]1CCC(C)=C[C@@H]21 [Δ9-THC, Δ^9-tetrahydrocannabinol] | high levels of toxicity | promote cell death | high levels of toxicity | – | – | CB1R expression and translocation (CB1R): did not alter the expression of CB1R; neurite length [3]: significantly decreased the neurite length; neuronal morphology and neurite outgrowth, TuJ1 staining [4]: disrupted neuronal morphology and neurite outgrowth |
| CCCCCc1cc(O)c2c(c1)OC(C)(CCC=C(C)C)C=C2 (stereo not drawn) [CBC, cannabichromene] | high levels of toxicity | promote cell death | high levels of toxicity | – | – | – |
| Aβ1-42: Amyloid-beta (Aβ1-42) peptide, insult-inducing cytotoxic agent | – | – | – | – | – | cytotoxicity ([1]; Aβ1-42 insult alone at 5 μM, 24 hrs, FIG. 7): 23-52%; BAX expression (BAX): induced upregulation; BCL2 expression (BCL2): downregulation; neurite morphology [5]: damaged neurite outgrowth |
| CCCCCc1cc(O)c(C/C=C(\C)CCC=C(C)C)c(O)c1 [CBG, cannabigerol] | high levels of toxicity | promote cell death | – | – | – | protection from STSR induced cytotoxicity ([2]; 5 μM, 10 μM and 15 μM with STSR 75 nM, FIG. 6): did not protect; Cell Death (%) vs STSR, significance ([2]; 15 μM with STSR 75 nM, p=0.0002, FIG. 6): statistically significant cytotoxicity; protection from Aβ1-42 induced insult ([6]; 1.5 μM, 5 μM and 10 μM with Aβ1-42 5 μM, FIG. 7): did not protect; cytotoxicity with Aβ1-42 ([6]; 10 μM with Aβ1-42 5 μM, p<0.0001, FIG. 7): significant cytotoxicity |
| Cc1ccc(Cn2nc(C(=O)N[C@@H]3C(C)(C)[C@@H]4CC[C@@]3(C)C4)cc2-c2ccc(Cl)c(C)c2)cc1 [SRI 14528, 5-(4-chloro-3-methylphenyl)-1-[(4-methylphenyl)methyl]-N-[(1S,2S,4R)-1,3,3-trimethylbicyclo[2.2.1]heptan-2-yl]-1H-pyrazole-3-carboxamide] | – | – | – | – | – | reversal of CBGA mediated neuroprotection [7]: completely reversed |
| C=C(C)c1ccc(C)cc1-c1c(O)cc(CCCCC)cc1O [CBND] | high levels of toxicity | promote cell death | – | did not protect | statistically significant cytotoxicity | – |
| C=C(C)[C@@H]1CCC(C)=C[C@H]1c1c(O)cc(CCCCC)cc1O [CBD, cannabidiol] | high levels of toxicity | promote cell death | high levels of toxicity | did not protect | statistically significant cytotoxicity | – |
| CN[C@@H]1C[C@H]2O[C@@](C)([C@@H]1OC)n1c3ccccc3c3c4c(c5c6ccccc6n2c5c31)C(=O)NC4 [STSR, Staurosporin] | – | – | – | – | – | cell death ([1]; STSR 75 nM, 72 hrs, vs vehicle control, FIG. 2): ~34%; cell death ([1]; STSR 200 nM, 72 hrs, vs vehicle control, FIG. 2): ~66%; cell death ([1]; STSR-insult alone at 75 nM, FIG. 5): ~48% |
